We go through two compounds from patent US20130198900A1, “"THIAMINE PYROPHOSPHATE (TPP) RIBOSWITCH MUTANTS PRODUCING VITAMIN B1 ENRICHED FOOD AND FEED CROPS"” (BEN-GURION UNIVERSITY OF THE NEGEV, priority 2010, published 2013).

Each structure is given as a SMILES string.

Experiment [1] relates to AtTHIC promoter and AtTHIC 3' UTR (TPP riboswitch). Nature of the experiment: Dual reporter assay (RFP under AtTHIC promoter, YFP fused to AtTHIC 3' UTR) with exogenous TPP. The experiment is classed as in vivo, Arabidopsis. The protocol:
Arabidopsis thaliana plants (ecotype Columbia, Col-0) were grown on soil in climate rooms (22° C.; 70% humidity; 16/8 hr light/dark for long day conditions and 10/14 hr light/dark for short day conditions). The Atthi1 and Atthic mutants were obtained from the European Arabidopsis Stock Center (NASC; http://arabidopsis.info/; stock ID: N3375; salk—011114 respectively). For experiments involving TPP addition, plants were grown for 14 days in petri dishes on MS media (basal salt mixture; Duchefa, Haarlem, The Netherlands) with 1% sucrose and 1% agar, to which TPP (Sigma, Cat. no. C8754, water soluble) was added up to the indicated concentration.
In order to determine whether the diurnal changes of AtTHIC expression are caused by the light or by the circadian clock, Arabidopsis plants were subjected to a circadian assay (see material and methods above). […] In the growth conditions used herein, the transcripts reached their highest expression level at the beginning of the dark period and their lowest expression level shortly after the beginning of the light period. […] To separate between these two modes of gene control, a dual reporter assay was developed, allowing observing the in vivo activity of both elements. Expression of one reporter gene, YELLOW FLUORESCENT PROTEIN(YFP) was under the control of a constitutive promoter (CaMV-35S) and fused to the AtTHIC 3′ UTR. A second reporter gene, RED FLUORESCENT PROTEIN(RFP) was placed under the regulation of the native AtTHIC promoter and fused to the NOS terminator (FIG. 4). These two reporters were introduced into the Arabidopsis wild type (wt) and thi1 mutant (deficient in thiamine biosynthesis), and their expression was monitored under various conditions. Wild type plants harboring this double reporter genes system were subjected to a circadian assay.
The expression level of the above-described reporter genes (YFP and RFP) in fully grown plants was also determined. […]

Another experiment relates to thiamine biosynthesis. Nature of the experiment: Bacimethrin treatment of wild type plants, thiamine and TPP levels by HPLC. The experiment is classed as in vivo, Arabidopsis. Particulars: 1 mM in growth medium, wild type plants (FIG. 26). As for the experimental part:
Bacimethrin is a naturally occurring thiamine anti-metabolite. It is converted to 2′-methoxy-thiamine pyrophosphate by the thiamine biosynthetic enzymes at a rate that is 6 times faster than the rate of conversion of the natural substrate HMP to thiamine pyrophosphate (Reddick J J et al., 2001. Bioorg Med Chem Lett 11, 2245-2248). Since bacimethrin is a thiamine biosynthesis inhibitor in bacteria, its potency in plants was examined.
Samples (100 mg) were harvested from three weeks old plants grown in short day conditions at the end of the light period, and immediately frozen in liquid nitrogen. The plant samples were then grinded followed by the addition of 400 μl of 0.1M HCl, and sonicated in a water bath for 30 min. The resulting extracts were centrifuged at 14,000 rpm (in a regular bench centrifuge) for 10 min. […] Thiochrome derivatives of thiamine, TMP, and TPP were detected by fluorescence at excitation 370 nm and emission 430 nm. Different concentrations of thiamine, thiamine monophosphate (TMP) and thiamine pyrophosphate (TPP) standards were analyzed using the same extraction procedure and chromatographic conditions. […] For quantification of the samples, the peak areas of the samples were compared to the corresponding standard curve.

The subject of another experiment is AtTHIC gene. Nature of the experiment: AtTHIC transcript levels (qPCR) under bacimethrin treatment in wt, upf1 and upf3 plants. It is filed as in vivo, Arabidopsis. Particulars: 1 mM bacimethrin. As for the experimental part:
Quantitative Real Time PCR (qPCR) gene expression analysis was performed with three biological replicates using gene/variant-specific qPCR oligonucleotide-pairs, designed with Primer Express software (Applied Biosystems). AtUBIQUITIN C (At5g25760) was used as endogenous control for all analyses. Fixed amount of DNAse-treated total RNA was reverse transcribed using AMV Reverse Transcriptase (EurX Ltd., Poland). RT-PCR reactions were tracked on an ABI 7300 instrument (Applied Biosystems) using the PlatinumR SYBR SuperMix (Invitrogen). Each sample was PCR-amplified from the same amount of cDNA template in triplicate reactions. Following an initial step in the thermal cycler for 10 min at 95° C., PCR amplification proceeded for 40 cycles of 15 s at 95° C. and 60 s at 60° C., and completed by melting curve analysis to confirm specificity of PCR products. The baseline and threshold values were adjusted according to manufacturer's instructions.
Given the importance of the AtTHIC gene for thiamine biosynthesis, its mode of regulation, particularly the nature of the high turnover of the intron-spliced variant compared to the intron-retained variant was further examined. Since the spliced variant contains two introns in its 3′ UTR, its instability could be due to the activity of the non-sense mediated decay (NMD) pathway (Kertesz S et al., 2006. Nucleic Acids Res 34, 6147-6157). Thus, the level of this transcript was measured in the background of upf1 and upf3 mutants of Arabidopsis affected in the NMD pathway (Arciga-Reyes L et al., 2006. Plant J 47, 480-489). Transcript level was examined in both normal and low TPP concentrations (FIG. 9). Lowering the plant endogenous TPP levels in these experiments was obtained using 1 mM bacimethrin, an anti-metabolite that inhibits thiamine production (Reddick et al., 2001; ibid). In wt plants as well as in the upf1 and upf3 mutants, bacimethrin treatment (preventing thiamine accumulation) caused the upregulation of the total AtTHIC transcript and of its intron-retention variant (FIGS. 9A and 9B, respectively). […] Thus, the accumulation of this transcript in the upf mutants can be explained by an increase in its stability since the NMD trans-factors are missing. It should also be noticed, that due to the accumulation of the intron-spliced variant under bacimethrin treatment, the total AtTHIC transcripts are more abundant in the upf mutants.

Experiment [2] deals with thiamine biosynthetic enzymes. Particulars: Reddick et al., 2001; cited from earlier work.

Consider `Cc1ncc(C[n+]2csc(CCO[P@](=O)(O)OP(=O)(O)O)c2C)c(N)n1` [TPP, thiamine pyrophosphate], for which, in experiment [1] (Atthi1 mutant plants), the “RFP expression directed by AtTHIC promoter” value is “did not respond” and the “YFP expression regulated by AtTHIC 3' UTR” value is reported as “regulated YFP expression in a TPP dependent manner”. The “reporter gene expression (RFP and YFP)” value in experiment [1] (wt plants with double reporter gene system, increasing TPP concentrations) was “Only slight changes”.
`COc1ncc(CO)c(N)n1` [bacimethrin]: in the experiment on thiamine biosynthesis, the TPP levels entry is reported as “reduced” and the thiamine levels result is “increased”. Further, in the experiment on AtTHIC gene (upf1 and upf3 mutants (FIG. 9C)), the “AtTHIC intron-spliced variant transcript” value was “did not decrease”. For the same compound, in the experiment with AtTHIC gene (wt plants (FIG. 9C)), the “AtTHIC intron-spliced variant transcript” value is “down-regulation”. Further, the “total AtTHIC transcript” value with AtTHIC gene (wt plants and upf1, upf3 mutants (FIG. 9A)) is recorded as “upregulation”. The “AtTHIC intron-retention variant transcript” value in the experiment with AtTHIC gene (wt plants and upf1, upf3 mutants (FIG. 9B)) is “upregulation”. Also, the “rate of conversion to 2'-methoxy-thiamine pyrophosphate relative to conversion of natural substrate HMP to thiamine pyrophosphate” value in experiment [2] is 6 times faster.
